According to US11299458B2, “Crystalline compounds” (OTSUKA AMERICA PHARMACEUTICAL, INC., priority 2015, dated 2022):
Values joined by “and” are separate entries in the source; they are usually repeats but may differ in a detail not shown here. Equal entries are not always repeated.

Legend:
[1] = Physical stability of mixture of Forms A and B on heat exposure; type: physicochemical; conditions: exposure to 230° C.
Description: Tt,B→A is between 37 and 54° C. […] (Table 19 below).

[2] = biological target: norepinephrine reuptake (NE) (Homo sapiens, UniProt P23975); conditions: unbalanced triple reuptake inhibitor; cited from earlier work
dopamine reuptake (DA) = dopamine reuptake (DA) (Homo sapiens, UniProt Q01959); conditions: unbalanced triple reuptake inhibitor; cited from earlier work
[3] = biological target: serotonin reuptake (5-HT) (Homo sapiens, UniProt P31645); conditions: unbalanced triple reuptake inhibitor; cited from earlier work
[4] = Accelerated stress conditions (relative humidity stress), solid form by XRPD; type: physicochemical; conditions: two weeks
Description: Relative Humidity Stress: Solids are stored at approximately 40° C./75% RH condition for a measured time period by placing the solids into a vial inside a sealed temperature/humidity chamber at the controlled condition. Samples are analyzed after removal from the stress environment.
Crystalline Forms A, B, and C are exposed to accelerated stress conditions for two weeks (Table 18 below). […] Crystalline Form C is metastable at this condition.
Experimental: Relative Humidity Stress
The following relative humidity jars (saturated salt solutions are used to generate desired relative humidity) are utilized: 75% RH (NaCl) and 56% RH (NaBr) (Nyqvist, H., Int. J. Pharm. Tech. &Prod. Mfr. 1983, 4 (2), 47-48).

[5] = Binary interconversion (competitive) slurry experiments between Crystalline Forms A, B and C; type: physicochemical; conditions: from interconversion slurries
Description: Interconversion experiments are performed to test the hypothetical thermodynamic relationship between materials illustrated by the Energy—Temperature Diagram above. […] The choice of solvent affects the kinetics of polymorph conversion and not the thermodynamic relationship between polymorphic forms (Gu, C. H., Young, V. Jr., Grant, D. J., J. Pharm. Sci. 2001, 90 (11), 1878-1890).
Binary interconversion slurry experiments between Crystalline Forms A, B, and C in different solvent systems at temperatures spanning approximately 2 through 67° C. are summarized in Table 16 below. Saturated solutions are generated and then added to mixtures composed of approximately equivalent quantities of two of the polymorphs. The samples are slurried from overnight to three weeks and the solids harvested and analyzed by XRPD. The results of the interconversion studies indicate that the relative thermodynamic stability of the enantiotropes Crystalline Forms A, B, and C are correctly depicted by the proposed Energy—Temperature Diagram. In addition, Tt,C→B is expected below 2° C.

[6] = Storage stability of solid form, XRPD after storage; type: physicochemical; conditions: 22 days of ambient storage
Description: Six scale-up attempts are conducted to prepare Crystalline Form C by cooling in isopropanol on approximately 50-150 mg scale (Table 11) and the solids tested by XRPD. At refrigerator temperature, precipitated solids yield Form B. Seeding with Form C after cooling in the refrigerator (no solids observed) and before placing in the freezer yield XRPD pattern of Form C with B peaks. Precipitation at freezer temperature results in solids with an XRPD pattern of Form C with A peaks. A solution placed in the freezer after cooling to room temperature with a lower concentration (7 mg/mL compared to 10 mg/mL) yields Form B. By crash cooling (ambient solution placed into dry ice/isopropanol), solids generated are a mixture of Forms B and A. The last attempt on an approximate 50-mg scale generates a mixture of Forms A and C.
An elliptically graded multilayer mirror is used to focus Cu Kα X-rays through the specimen and onto the detector. Prior to the analysis, a silicon specimen (NIST SRM 640e) is analyzed to verify the observed position of the Si 111 peak is consistent with the NIST-certified position. A specimen of the sample is sandwiched between 3-μm-thick films and analyzed in transmission geometry. A beam-stop, short antiscatter extension, and antiscatter knife edge are used to minimize the background generated by air. Soller slits for the incident and diffracted beams are used to minimize broadening from axial divergence. The diffraction pattern is collected using a scanning position-sensitive detector (X'Celerator) located 240 mm from the specimen and Data Collector software v. 2.2b. Data acquisition parameters are: Panalytical X-Pert Pro MPD PW3040 Pro, X-ray Tube: Cu (1.54059 Å), Voltage: 45 kV, Amperage: 40 mA, Scan Range: 1.00-39.99° 2θ, Step Size: 0.017° 2θ, Collection Time: 719 s, Scan Speed: 3.3°/min., Slit: DS: ½°, SS: null, Revolution Time: 1.0 s, Mode: Transmission.

[7] = Approximate solubility by solvent aliquot addition; type: physicochemical; conditions: in both methanol and water, room temperature
Description: Solution calorimetry (SolCal) analyses are also performed to determine the heats of solution in methanol at 25° C. and confirm the stable form at this temperature (see Example 15).
Experimental: Approximate Solubility
A weighed sample is treated with aliquots of the test solvent at room temperature. The mixture is sonicated between additions to facilitate dissolution. Complete dissolution of the test material is determined by visual inspection. Solubility is estimated based on the total solvent used to provide complete dissolution. The actual solubility may be greater than the value calculated because of the use of solvent aliquots that are too large or due to a slow rate of dissolution.

[8] = Solution calorimetry (SolCal), heats of solution in methanol; type: physicochemical; conditions: 25° C.
Description: For each test, two heats of solution are obtained—one calculated using a calibration preceding the sample analysis and one calculated using a calibration following the sample analysis. Clear solutions are observed after each test.
Solution calorimetry is performed using a Thermometric 2225 Precision Solution calorimeter, a semi-adiabatic calorimeter. Solution calorimeter System v.1.2 software is used. Samples are weighed into glass crushing ampoules and are sealed using silicone rubber plugs and hot wax. Experiments are carried out in 100 mL of methanol at 25° C. The measurement of the heats of solution of the samples is both preceded and followed by calibrations using an internal heater. The heats of solution are calculated using dynamic of calibration model.

norepinephrine reuptake (NE), sequence (P23975 whole entry): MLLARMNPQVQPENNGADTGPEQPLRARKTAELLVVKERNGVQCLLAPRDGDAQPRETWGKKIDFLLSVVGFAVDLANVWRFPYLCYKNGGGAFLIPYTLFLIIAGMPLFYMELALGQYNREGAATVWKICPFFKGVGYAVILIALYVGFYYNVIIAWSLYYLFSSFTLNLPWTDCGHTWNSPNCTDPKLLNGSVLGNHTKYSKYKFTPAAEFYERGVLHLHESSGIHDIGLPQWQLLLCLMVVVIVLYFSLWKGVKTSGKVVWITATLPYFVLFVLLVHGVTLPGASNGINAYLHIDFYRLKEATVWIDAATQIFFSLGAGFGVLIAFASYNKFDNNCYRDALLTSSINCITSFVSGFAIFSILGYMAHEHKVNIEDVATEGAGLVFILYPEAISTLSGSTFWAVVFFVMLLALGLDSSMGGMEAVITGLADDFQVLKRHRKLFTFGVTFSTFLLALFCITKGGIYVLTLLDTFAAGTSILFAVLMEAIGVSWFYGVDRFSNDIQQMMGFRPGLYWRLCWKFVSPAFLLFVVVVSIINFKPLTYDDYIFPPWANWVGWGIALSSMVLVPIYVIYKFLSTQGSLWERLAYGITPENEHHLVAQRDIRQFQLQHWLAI
dopamine reuptake (DA), sequence (Q01959 whole entry): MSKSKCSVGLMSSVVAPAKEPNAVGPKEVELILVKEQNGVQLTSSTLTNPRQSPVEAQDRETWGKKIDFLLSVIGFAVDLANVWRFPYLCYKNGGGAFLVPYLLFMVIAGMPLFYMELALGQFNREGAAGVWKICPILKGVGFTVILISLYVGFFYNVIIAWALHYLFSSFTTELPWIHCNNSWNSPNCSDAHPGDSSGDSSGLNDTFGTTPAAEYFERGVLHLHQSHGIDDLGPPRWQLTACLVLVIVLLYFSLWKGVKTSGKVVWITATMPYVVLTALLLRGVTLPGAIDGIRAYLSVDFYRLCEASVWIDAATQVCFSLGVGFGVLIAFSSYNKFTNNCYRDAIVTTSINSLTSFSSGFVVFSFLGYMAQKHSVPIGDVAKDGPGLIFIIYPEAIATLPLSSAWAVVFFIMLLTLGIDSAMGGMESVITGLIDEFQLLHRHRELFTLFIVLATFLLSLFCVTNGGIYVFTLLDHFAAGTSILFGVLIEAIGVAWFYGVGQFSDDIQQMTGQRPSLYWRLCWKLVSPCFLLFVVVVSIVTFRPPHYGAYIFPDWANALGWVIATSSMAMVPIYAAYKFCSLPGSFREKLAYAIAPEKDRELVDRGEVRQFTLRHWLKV
serotonin reuptake (5-HT), sequence (P31645 whole entry): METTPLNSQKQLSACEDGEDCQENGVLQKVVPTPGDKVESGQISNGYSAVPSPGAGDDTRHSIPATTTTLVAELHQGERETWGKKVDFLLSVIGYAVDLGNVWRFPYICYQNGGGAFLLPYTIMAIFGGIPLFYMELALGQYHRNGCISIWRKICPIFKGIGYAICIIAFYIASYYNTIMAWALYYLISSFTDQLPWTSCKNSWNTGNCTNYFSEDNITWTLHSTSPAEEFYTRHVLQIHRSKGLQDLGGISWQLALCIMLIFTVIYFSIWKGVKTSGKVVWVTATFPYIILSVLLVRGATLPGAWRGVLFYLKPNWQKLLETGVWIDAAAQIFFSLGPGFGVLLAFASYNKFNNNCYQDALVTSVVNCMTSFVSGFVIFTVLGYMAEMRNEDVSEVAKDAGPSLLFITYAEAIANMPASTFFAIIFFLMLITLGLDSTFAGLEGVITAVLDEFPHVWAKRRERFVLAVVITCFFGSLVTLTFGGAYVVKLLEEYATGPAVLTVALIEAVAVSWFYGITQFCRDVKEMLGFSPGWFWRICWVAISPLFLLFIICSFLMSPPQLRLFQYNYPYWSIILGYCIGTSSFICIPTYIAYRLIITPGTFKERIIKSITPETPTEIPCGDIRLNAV

Cl.c1ccc2cc([C@]34CNC[C@H]3C4)ccc2c1 [mixture of Forms A and B, (1R,5S)-1-(naphthalen-2-yl)-3-azabicyclo[3.1.0]hexane hydrochloride]
solid form after heat exposure [1]: completely converts to Form A

c1ccc2cc([C@]34CNC[C@H]3C4)ccc2c1 [(1R,5S)-1-(naphthalen-2-yl)-3-azabicyclo[3.1.0]hexane]
potency towards norepinephrine reuptake (NE) among the three reuptakes [2]: most potent
potency towards dopamine reuptake (DA) relative to norepinephrine reuptake (dopamine reuptake (DA)): one-sixth as potent
potency towards serotonin reuptake (5-HT) relative to norepinephrine reuptake [3]: one-fourteenth as much

Cl.c1ccc2cc([C@]34CNC[C@H]3C4)ccc2c1 [Crystalline Form C, (1R,5S)-1-(naphthalen-2-yl)-3-azabicyclo[3.1.0]hexane hydrochloride]
solid form by XRPD after accelerated stress ([4]; 40° C./75% RH, hydrochloride): converts to a mixture of Crystalline Forms A and B
transition temperature Tt,C→A [5]: between 2 °C and ambient temperature
solid form by XRPD after ambient storage [6]: remains unchanged

Cl.c1ccc2cc([C@]34CNC[C@H]3C4)ccc2c1 [Crystalline Form B, (1R,5S)-1-(naphthalen-2-yl)-3-azabicyclo[3.1.0]hexane hydrochloride]
solid form by XRPD after accelerated stress ([4]; 30° C./56% RH): remain unchanged
solid form by XRPD after accelerated stress ([4]; 40° C./75% RH, hydrochloride): remain unchanged
apparent solubility compared with Crystalline Form A [7]: lower apparent solubility
relative thermodynamic stability versus Crystalline Form A from heats of solution [8]: more stable
enthalpy of the transition from Form B to Form A calculated from the SolCal data ([8]; methanol): about 15.9 J/g
average heat of solution ([8]; methanol, triplicate, endothermic, hydrochloride): 64.567 J/g
average heat of solution ([8]; methanol, average of three replicates, hydrochloride): 64.567 J/g
ΔH2 (heat of solution) ([8]; methanol, calculated using the calibration after breaking the sample vial, single replicates, hydrochloride): 64.985 J/g and 65.057 J/g and 65.421 J/g
ΔH1 (heat of solution) ([8]; methanol, calculated using the calibration before breaking the sample vial, single replicates, hydrochloride): 64.004 J/g and 63.471 J/g and 64.461 J/g
ΔHmean (heat of solution) ([8]; methanol, mean of the two calibrations, single replicates, hydrochloride): 64.495 J/g and 64.264 J/g and 64.941 J/g
